Values joined by “and” are separate entries in the source; they are usually repeats but may differ in a detail not shown here. Identical values can stand only once. ± gives the expanded uncertainty stated by the source.
How the values were obtained:
[1] = molar heat capacity at constant pressure; conditions: Liquid, Large sample (1 g) DSC
[2] = molar heat capacity at constant pressure; xn = mol fraction of the nth substance listed; conditions: 100 kPa, Liquid, Large sample (1 g) DSC, x1 = 0.38

CC [ethane]
molar heat capacity at constant pressure ([1]; 108.15 K, 1050 kPa): 67.9 ± 1.7 J/K/mol
molar heat capacity at constant pressure ([1]; 108.15 K, 2020 kPa): 67.87 ± 1.7 J/K/mol
molar heat capacity at constant pressure ([1]; 108.15 K, 4290 kPa): 67.78 ± 1.7 J/K/mol
molar heat capacity at constant pressure ([1]; 118.15 K, 1060 kPa): 68.26 ± 1.7 J/K/mol
molar heat capacity at constant pressure ([1]; 118.15 K, 2030 kPa): 67.63 ± 1.7 J/K/mol
molar heat capacity at constant pressure ([1]; 118.15 K, 4290 kPa): 68.95 ± 1.7 J/K/mol
molar heat capacity at constant pressure ([1]; 128.15 K, 4310 kPa): 68.65 ± 1.7 J/K/mol
molar heat capacity at constant pressure ([1]; 143.15 K, 4080 kPa): 68.62 ± 1.7 J/K/mol
molar heat capacity at constant pressure ([1]; 153.15 K, 4070 kPa): 69.94 ± 1.7 J/K/mol
molar heat capacity at constant pressure ([1]; 163.15 K, 4050 kPa): 70.84 ± 1.7 J/K/mol
molar heat capacity at constant pressure ([1]; 188.15 K, 1120 kPa): 73.46 ± 1.8 J/K/mol
molar heat capacity at constant pressure ([1]; 188.15 K, 4310 kPa): 72.41 ± 1.8 J/K/mol
molar heat capacity at constant pressure ([1]; 228.15 K, 1170 kPa): 81.04 ± 2 J/K/mol
molar heat capacity at constant pressure ([1]; 228.15 K, 4320 kPa): 80.07 ± 2 J/K/mol
molar heat capacity at constant pressure ([1]; 238.15 K, 1210 kPa): 83.71 ± 2 J/K/mol
molar heat capacity at constant pressure ([1]; 238.15 K, 4330 kPa): 82.72 ± 2 J/K/mol

CCCCCCC [heptane]
molar heat capacity at constant pressure ([1]; 228.15 K, 100 kPa): 202.31 ± 4.9 J/K/mol and 201.51 ± 4.9 J/K/mol
molar heat capacity at constant pressure ([1]; 238.15 K, 100 kPa): 206.22 ± 5 J/K/mol and 205.11 ± 5 J/K/mol
molar heat capacity at constant pressure ([1]; 303.15 K, 100 kPa): 225.96 ± 5.5 J/K/mol and 225.25 ± 5.5 J/K/mol
molar heat capacity at constant pressure ([1]; 313.15 K, 100 kPa): 229.16 ± 5.6 J/K/mol and 230.87 ± 5.6 J/K/mol

C [methane]
molar heat capacity at constant pressure ([1]; 108.15 K, 4230 kPa): 54.4 ± 1.3 J/K/mol
molar heat capacity at constant pressure ([1]; 108.15 K, 6300 kPa): 54.11 ± 1.3 J/K/mol
molar heat capacity at constant pressure ([1]; 118.15 K, 4270 kPa): 55.54 ± 1.4 J/K/mol
molar heat capacity at constant pressure ([1]; 118.15 K, 6350 kPa): 55.11 ± 1.4 J/K/mol
molar heat capacity at constant pressure ([1]; 128.15 K, 4330 kPa): 57.03 ± 1.4 J/K/mol
molar heat capacity at constant pressure ([1]; 128.15 K, 6400 kPa): 56.66 ± 1.4 J/K/mol
molar heat capacity at constant pressure ([1]; 143.15 K, 4350 kPa): 59.37 ± 1.5 J/K/mol
molar heat capacity at constant pressure ([1]; 153.15 K, 4340 kPa): 63.24 ± 1.6 J/K/mol
molar heat capacity at constant pressure ([1]; 153.15 K, 6340 kPa): 60.98 ± 1.5 J/K/mol
molar heat capacity at constant pressure ([1]; 163.15 K, 4390 kPa): 67.7 ± 1.8 J/K/mol
molar heat capacity at constant pressure ([1]; 163.15 K, 6470 kPa): 64.51 ± 1.7 J/K/mol
molar heat capacity at constant pressure ([1]; 173.15 K, 4380 kPa): 77.87 ± 2.2 J/K/mol
molar heat capacity at constant pressure ([1]; 173.15 K, 6450 kPa): 70.97 ± 1.9 J/K/mol

CCC [propane]
molar heat capacity at constant pressure ([1]; 108.15 K, 1160 kPa): 84.97 ± 2.1 J/K/mol
molar heat capacity at constant pressure ([1]; 108.15 K, 3680 kPa): 86.69 ± 2.1 J/K/mol
molar heat capacity at constant pressure ([1]; 108.15 K, 5160 kPa): 86.65 ± 2.2 J/K/mol
molar heat capacity at constant pressure ([1]; 108.15 K, 5330 kPa): 84.8 ± 2.2 J/K/mol
molar heat capacity at constant pressure ([1]; 118.15 K, 1170 kPa): 84.75 ± 2.1 J/K/mol
molar heat capacity at constant pressure ([1]; 118.15 K, 3650 kPa): 87.09 ± 2.1 J/K/mol
molar heat capacity at constant pressure ([1]; 118.15 K, 5180 kPa): 87.04 ± 2.2 J/K/mol
molar heat capacity at constant pressure ([1]; 118.15 K, 5430 kPa): 85.46 ± 2.2 J/K/mol
molar heat capacity at constant pressure ([1]; 128.15 K, 1180 kPa): 85.28 ± 2.1 J/K/mol
molar heat capacity at constant pressure ([1]; 128.15 K, 3640 kPa): 86.65 ± 2.1 J/K/mol
molar heat capacity at constant pressure ([1]; 128.15 K, 3670 kPa): 86.3 ± 2.1 J/K/mol
molar heat capacity at constant pressure ([1]; 128.15 K, 5190 kPa): 86.56 ± 2.2 J/K/mol
molar heat capacity at constant pressure ([1]; 128.15 K, 5430 kPa): 85.55 ± 2.1 J/K/mol
molar heat capacity at constant pressure ([1]; 143.15 K, 1130 kPa): 86.43 ± 2.1 J/K/mol
molar heat capacity at constant pressure ([1]; 143.15 K, 3690 kPa): 86.69 ± 2.1 J/K/mol
molar heat capacity at constant pressure ([1]; 143.15 K, 5180 kPa): 86.56 ± 2.1 J/K/mol
molar heat capacity at constant pressure ([1]; 153.15 K, 1190 kPa): 87.62 ± 2.2 J/K/mol
molar heat capacity at constant pressure ([1]; 153.15 K, 5200 kPa): 88.68 ± 2.2 J/K/mol
molar heat capacity at constant pressure ([1]; 163.15 K, 1170 kPa): 87.97 ± 2.2 J/K/mol
molar heat capacity at constant pressure ([1]; 163.15 K, 5210 kPa): 89.34 ± 2.2 J/K/mol
molar heat capacity at constant pressure ([1]; 188.15 K, 1190 kPa): 91.15 ± 2.2 J/K/mol
molar heat capacity at constant pressure ([1]; 188.15 K, 5220 kPa): 91.1 ± 2.2 J/K/mol
molar heat capacity at constant pressure ([1]; 228.15 K, 1150 kPa): 98.73 ± 2.4 J/K/mol
molar heat capacity at constant pressure ([1]; 228.15 K, 3670 kPa): 98.42 ± 2.4 J/K/mol
molar heat capacity at constant pressure ([1]; 228.15 K, 5220 kPa): 98.11 ± 2.4 J/K/mol
molar heat capacity at constant pressure ([1]; 238.15 K, 1110 kPa): 101.24 ± 2.5 J/K/mol
molar heat capacity at constant pressure ([1]; 238.15 K, 3680 kPa): 100.71 ± 2.5 J/K/mol
molar heat capacity at constant pressure ([1]; 238.15 K, 5220 kPa): 100.63 ± 2.5 J/K/mol
molar heat capacity at constant pressure ([1]; 248.15 K, 1160 kPa): 103.58 ± 2.6 J/K/mol
molar heat capacity at constant pressure ([1]; 248.15 K, 3670 kPa): 102.17 ± 2.5 J/K/mol
molar heat capacity at constant pressure ([1]; 248.15 K, 5190 kPa): 101.46 ± 2.5 J/K/mol
molar heat capacity at constant pressure ([1]; 258.15 K, 1160 kPa): 105.65 ± 2.6 J/K/mol
molar heat capacity at constant pressure ([1]; 258.15 K, 3680 kPa): 104.11 ± 2.6 J/K/mol
molar heat capacity at constant pressure ([1]; 258.15 K, 5220 kPa): 103.76 ± 2.6 J/K/mol

Cc1ccccc1 [toluene]
molar heat capacity at constant pressure ([1]; 228.15 K, 100 kPa): 138.39 ± 3.4 J/K/mol and 139.13 ± 3.4 J/K/mol
molar heat capacity at constant pressure ([1]; 238.15 K, 100 kPa): 140.79 ± 3.4 J/K/mol and 140.97 ± 3.5 J/K/mol
molar heat capacity at constant pressure ([1]; 303.15 K, 100 kPa): 159.03 ± 3.9 J/K/mol and 157.65 ± 3.9 J/K/mol
molar heat capacity at constant pressure ([1]; 313.15 K, 100 kPa): 162.35 ± 4 J/K/mol and 161.98 ± 4 J/K/mol

Cc1ccccc1 [toluene] + CCCCCCC
molar heat capacity at constant pressure ([2]; 228.15 K): 166.3 ± 4.1 J/K/mol
molar heat capacity at constant pressure ([2]; 238.15 K): 168.05 ± 4.1 J/K/mol
molar heat capacity at constant pressure ([2]; 303.15 K): 185.24 ± 4.6 J/K/mol
molar heat capacity at constant pressure ([2]; 313.15 K): 189.52 ± 4.7 J/K/mol
